Measurements taken from US7105521B2, “Eugenosedin-A based pharmacoligical agents” (Syn-Tech Chem & Pharm Co., Ltd., priority 2003, dated 2006).
“Also recorded” adds a separate entry of the source.

Experiments:
α2-adrenoceptor = assay: Intra-cisternal antagonism of clonidine-induced hypotension and bradycardia; format: in vivo, rats
Method: Intra-cisternal injections. […] Briefly, rats weighing 250–300 g were anaesthetized with pentobarbital sodium (50 mg kg^−1, i.p.) and mounted in a David-Kopf stereotaxic instrument (Yeh J L. et al., Brain. Res. Bull., 30:641–648, 1993). The calvarium was exposed and a 1 mm diameter trephine hole was drilled 1.8 mm lateral to the coronary and 1.5 mm posterior to the sagittal sutures. A cannula (0.7 mm O.D.) connected to a Hamilton syringe (RN-705, 5051) by PE-50 was advanced 4.7 mm into the brain using the electrode carrier.

α2-adrenergic receptors = assay: Clonidine-induced contraction of isolated rat thoracic aorta; format: cell-based; conditions: 10^−8, 10^−7, 10^−6 M
Text: (§1) Isolation of rat thoracic aorta. Rat thoracic aorta was removed, cleaned of adhering fat and connective tissue and cut into 3–4 mm wide transverse rings.

β2 receptors = target: T1, β2 receptors (Rattus norvegicus, UniProt P10608); assay: Receptor binding, [3H]CGP-12177, rat lung; parameters: species or system Wistar rat
T1 construct: with [^3H]CGP-12177 on β2 receptors in rat lung; from tissue; host or cells: Wistar rat lung membranes
T1 sequence (P10608 whole entry): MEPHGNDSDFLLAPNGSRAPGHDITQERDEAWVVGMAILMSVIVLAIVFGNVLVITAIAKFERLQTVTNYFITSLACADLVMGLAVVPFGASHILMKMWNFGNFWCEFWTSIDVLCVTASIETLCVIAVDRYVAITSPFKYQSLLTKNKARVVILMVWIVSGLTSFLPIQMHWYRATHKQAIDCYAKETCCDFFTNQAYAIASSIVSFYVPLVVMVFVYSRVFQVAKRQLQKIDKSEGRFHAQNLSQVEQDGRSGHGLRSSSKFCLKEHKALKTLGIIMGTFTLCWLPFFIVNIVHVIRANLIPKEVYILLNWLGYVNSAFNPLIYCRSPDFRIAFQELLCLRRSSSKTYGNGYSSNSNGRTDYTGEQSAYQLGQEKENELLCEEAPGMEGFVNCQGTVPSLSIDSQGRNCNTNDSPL
Method: (§2) Drugs and chemicals. […] Eugenosedin-A synthesized in this laboratory was solvated in 50% absolute alcohol, 10% propylene glycol and further diluted with distilled water. All of the [^3H] ligand was purchased from New England Nuclear Corp. (Boston, Mass., U.S.A.).
(§3) Receptor binding studies. […] The homogenate was pressure filtered through muslin. Filtrate was centrifuged at 1000 g for 10 min. Supernatant was centrifuged at 10,000 g for 12 min at 4° C. The second supernatant was centrifuged at 30,000 g for 15 min at 4° C. The final pellet was re-suspended in assay buffer (75 mM Tris HCl, 25 mM MgCl2, pH 7.4). Protein content was determined by Bradford's method. Radioligand agents and membranes (200–300 μg) were incubated for 60 min at 25° C. with or without the addition of nonspecific binding agents, in a 75 mM Tris HCl buffer with 25 mM MgCl2, to make a final volume of 500 μl. In competitive-binding experiments, the competing agent was added directly to the incubation mixture. […] Membrane-bound radioligand trapped in the filters was counted in a Beckman LS6500 scintillation system (Fullerton, Calif., U.S.A) with an efficiency of 45%. In each experiment, nonspecifically bound radioligand agents were determined by incubating membrane protein. […]

β1 receptors = target: T2, β1 receptors (Rattus norvegicus, UniProt P18090); assay: Receptor binding, [3H]CGP-12177, rat ventricle; parameters: species or system Wistar rat
T2 construct: with [^3H]CGP-12177 on β1 receptors in rat ventricle; from tissue; host or cells: Wistar rat heart (ventricle) membranes
T2 sequence (P18090 whole entry): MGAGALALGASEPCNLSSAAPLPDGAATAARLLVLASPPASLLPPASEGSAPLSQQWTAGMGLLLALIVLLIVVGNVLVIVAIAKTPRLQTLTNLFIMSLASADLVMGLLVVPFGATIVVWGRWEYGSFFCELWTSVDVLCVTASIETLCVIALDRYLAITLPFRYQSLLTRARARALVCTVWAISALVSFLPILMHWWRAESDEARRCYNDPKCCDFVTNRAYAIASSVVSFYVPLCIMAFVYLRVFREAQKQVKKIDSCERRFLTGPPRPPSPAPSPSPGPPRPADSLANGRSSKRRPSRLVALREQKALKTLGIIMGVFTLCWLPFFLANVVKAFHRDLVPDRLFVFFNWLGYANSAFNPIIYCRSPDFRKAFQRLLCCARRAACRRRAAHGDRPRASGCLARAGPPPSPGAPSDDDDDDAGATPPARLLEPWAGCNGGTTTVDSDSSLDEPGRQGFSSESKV
Method: as §2, §3

5-HT re-uptake sites = target: T3, 5-HT re-uptake sites (Rattus norvegicus, UniProt P31652); assay: 5-HT re-uptake in cerebral cortex synaptosomes; format: biochemical, Wistar rats
T3 construct: the cerebral cortex or striatum was dissected and crude synaptosomes were prepared; from tissue; host or cells: crude synaptosomes of Wistar rat cerebral cortex
T3 sequence (P31652 whole entry): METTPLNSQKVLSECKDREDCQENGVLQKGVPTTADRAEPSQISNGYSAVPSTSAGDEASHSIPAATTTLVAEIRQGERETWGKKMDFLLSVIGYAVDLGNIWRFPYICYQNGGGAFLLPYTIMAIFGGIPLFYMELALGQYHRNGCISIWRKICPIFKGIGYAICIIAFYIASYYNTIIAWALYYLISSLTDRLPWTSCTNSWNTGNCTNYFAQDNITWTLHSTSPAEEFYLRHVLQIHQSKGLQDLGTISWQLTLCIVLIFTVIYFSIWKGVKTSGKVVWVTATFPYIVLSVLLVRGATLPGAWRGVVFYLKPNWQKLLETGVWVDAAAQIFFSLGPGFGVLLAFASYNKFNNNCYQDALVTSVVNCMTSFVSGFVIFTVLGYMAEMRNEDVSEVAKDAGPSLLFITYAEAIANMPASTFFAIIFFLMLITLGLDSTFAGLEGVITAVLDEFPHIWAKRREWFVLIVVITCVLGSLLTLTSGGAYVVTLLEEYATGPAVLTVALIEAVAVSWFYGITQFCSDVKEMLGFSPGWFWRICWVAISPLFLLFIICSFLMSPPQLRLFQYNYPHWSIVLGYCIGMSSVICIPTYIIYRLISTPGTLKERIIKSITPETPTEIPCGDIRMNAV
Method: Saline was added to the incubation mixture, which was then filtered through a Whatman GF/B glass filter under reduced pressure. To determine nonspecific uptake, incubation was performed at 0° C.

[1] = system: Fe2+-ascorbic acid-induced lipid peroxidation; assay: Lipid peroxidation (TBARS) in rat brain homogenate; format: biochemical; conditions: n=5, read-out: IC50 of inhibition of Fe2+-ascorbic acid-induced lipid peroxidation
Method: Antioxidant and peroxyl radical scavenging activities. Rat brain homogenate was made in 0.9% saline containing 10 mg tissue/ml. The rates of membrane lipid peroxidation were measured by the formation of thiobarbituric acid (TBA)-reactive substance (TBARS). Rat brain homogenates (1 ml) were incubated at 37° C. for 5 min with 10 μl of test compound or vehicle. Lipid peroxidation was initiated by the addition of 0.1 ml of 0.25 mM FeCl2 and 1 mM ascorbic acid (Huang Y C. et al., Drug. Dev. Res., 47:77–89, 1999). After 30 min of incubation, the reaction was stopped by adding 0.1 ml of 0.2% BHT. TBA reagent was then added and the mixture was heated for 30 min in a boiling water bath. TBARS was extracted by n-butanol and measured at 532 nm. The amount of TBARS was quantified using the linear regression obtained from malondialdehyde (MDA) standards.

[2] = Peroxyl radical scavenging, B-phycoerythrin/AAPH; format: biochemical
Method: The stoichiometric factors of the test compounds with hydrophilic peroxyl radicals were calculated by the equation as mentioned Ascorbic acid was used as a positive control.

[3] = LPS-induced vascular hyporeactivity of isolated aorta to phenylephrine; format: in vivo, rats
Text: as §1

IFN-γ = assay: Plasma cytokine immunoreactivity after LPS: IFN-γ; format: in vivo, Wistar rats; conditions: 3 hours after LPS 10 mg kg^−1 i.v.; pretreatment 1 mg kg^−1 i.v.
Method: (§4) Plasma cytokine immunoreactivity and blood glucose. Blood was collected from venous cannula, injected into ice-cold heparinized Eppendorf tubes and centrifuged at 1500 rpm for 10 min at 4° C. Plasma supernatant was stored at −70° C. until analyzed. Solid phase enzyme immunoassay that specifically detects murine IL-1β, IL-6, IFN-γ and TNF-α was used with a detection limit of >10 pg/ml (Endogen, U.S.A). Pretreatment with eugenosedin-A and other agents was performed 15 minutes before intravenous injection of LPS. Blood was collected from venous cannula. Blood glucose was measured with a glucose test strip (Glucotide, Bayer, U.S.A) at 1, 3 and 5 hours.

TNF-α = assay: Plasma cytokine immunoreactivity after LPS: TNF-α; format: in vivo, Wistar rats
Method: as §4

Survival rate after LPS = format: in vivo, ddk mice; conditions: pretreatment 0.5, 1, 5 mg kg^−1 i.p., LPS 60 mg kg^−1
5-HT2A receptor = 5-HT2A receptor (Rattus norvegicus, UniProt P14842); assay: Receptor binding, [3H]ketanserin, rat cortex; parameters: from tissue; host or cells: Wistar rat cortex membranes; species or system Wistar rat
Sequence of 5-HT2A receptor (P14842 whole entry): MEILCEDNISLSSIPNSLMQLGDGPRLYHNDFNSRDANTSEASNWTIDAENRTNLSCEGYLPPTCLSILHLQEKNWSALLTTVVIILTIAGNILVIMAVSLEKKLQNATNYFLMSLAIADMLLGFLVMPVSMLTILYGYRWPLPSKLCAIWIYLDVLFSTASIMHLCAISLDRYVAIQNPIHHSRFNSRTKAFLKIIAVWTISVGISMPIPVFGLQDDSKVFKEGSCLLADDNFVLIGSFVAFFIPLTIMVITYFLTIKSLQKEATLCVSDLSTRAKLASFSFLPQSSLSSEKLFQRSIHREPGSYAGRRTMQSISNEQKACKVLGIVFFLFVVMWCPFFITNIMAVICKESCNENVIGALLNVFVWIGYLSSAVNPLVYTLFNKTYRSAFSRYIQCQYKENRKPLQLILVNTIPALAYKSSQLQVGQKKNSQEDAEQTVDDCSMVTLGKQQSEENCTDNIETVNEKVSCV
Method: as §2
Receptor binding studies. […] The homogenate was pressure filtered through muslin. Filtrate was centrifuged at 1000 g for 10 min. Supernatant was centrifuged at 10,000 g for 12 min at 4° C. The second supernatant was centrifuged at 30,000 g for 15 min at 4° C. The final pellet was re-suspended in assay buffer (75 mM Tris HCl, 25 mM MgCl2, pH 7.4). Protein content was determined by Bradford's method. Radioligand agents and membranes (200–300 μg) were incubated for 60 min at 25° C. with or without the addition of nonspecific binding agents, in a 75 mM Tris HCl buffer with 25 mM MgCl2, to make a final volume of 500 μl. In competitive-binding experiments, the competing agent was added directly to the incubation mixture. Incubation was terminated by addition of 1 ml of ice-cold assay buffer followed by immediate filtration through Whatman GF/C glass fiber filters supported on a 12-port filter manifold (Millipore). The filters were immediately washed 3 times with 5 ml of ice-cold assay buffer and dried in an oven at 60° C. for 2 hours before adding 5 ml of Triton-toluene-based scintillation fluid. Membrane-bound radioligand trapped in the filters was counted in a Beckman LS6500 scintillation system (Fullerton, Calif., U.S.A) with an efficiency of 45%. In each experiment, nonspecifically bound radioligand agents were determined by incubating membrane protein. Specific binding for each sample was obtained by deducting this value from the total binding of radioligand agents.

CC=Cc1ccc(OCC(O)CN2CCN(c3ccccc3Cl)CC2)c(OC)c1 (stereo not shown) [eugenosedin-A]
bradycardic effect of clonidine (α2-adrenoceptor; 0.3 μmol): reduced the bradycardic effect of clonidine | hypotensive effect of clonidine (α2-adrenoceptor; given 15 min before clonidine injection): antagonized the hypotensive effect of clonidine | clonidine-induced bradycardia (α2-adrenoceptor; low dose, 0.03 μmol): did not inhibit clonidine-induced bradycardia | cumulative clonidine-induced contractile activities (α2-adrenergic receptors): competitively inhibited | Ki (β2 receptors): > 10000 nM | binding affinity for β1-adrenoceptors (β1 receptors): some binding affinity for β1-adrenoceptors | IC50 (5-HT re-uptake sites): 34300 nM | IC50 [1]: 2680 ± 50 nM | scavenging of AAPH-derived peroxyl radicals (B-phycoerythrin fluorescence, lag time) [2]: concentration-dependent decrement of fluorescence and prolongation of the lag time | aortic contractility to phenylephrine in LPS-treated rats ([3]; 1 mg kg^−1 i.v. before or after LPS, phenylephrine 10^−8~10^−4 M): increased aortic contractility more than the vehicle group | protection from LPS-induced hyporeactivity of the aorta compared with yohimbine, trazodone, aminoguanidine and ascorbic acid ([3]; rat, in vivo): more effective | LPS-induced increase in IFN-γ (IFN-γ): significantly inhibited | LPS-induced increase in TNF-α (TNF-α; 3 hours after LPS 10 mg kg^−1 i.v., pretreatment (eugenosedin-A 1 mg kg^−1 i.v.)): significantly inhibited | LPS-induced increase in TNF-α (TNF-α; 5 hours after LPS 10 mg kg^−1 i.v., pretreatment): significantly reduced | survival rate after LPS (Survival rate after LPS; at 12 hrs): significantly increased | time of LPS-induced death (Survival rate after LPS): 36 h | binding affinity for 5-HT2A receptors (5-HT2A receptor): higher binding affinity than other β-adrenergic antagonists; also recorded: higher binding affinity than propranolol | order of potency on 5-HT2A receptors (5-HT2A receptor): ketanserin >methylsergide >eugenosedin-A >5-HT >propranolol >prazosin | Ki (5-HT2A receptor; [3H]ketanserin, rat cortex): 33.3 nM
